Where two headings read alike, the source gives them in different places.
Experiments:
p-MET [1] = assay: Immunohistochemical staining (IOD) of p-MET in tumor tissue; type: in vivo, nude mice (MDA-MB-231 human breast cancer xenograft); conditions: 15 and 50 mg/kg for 18 days
[2] = Pharmacokinetic study in tumor-bearing nude mice (LC-MS/MS); type: in vivo; conditions: plasma; for AUC(0-inf) / AUC(0-t) / Cmax / Tmax / half-life / MRT: nude, mouse; for MRT: read-out: MRT (mean resident time)
Description: Data processing was performed with Phoenix WinNonlin 8.1.0.3530 (Pharsight Corporation, Mountain View, CA, USA).

MET mRNA [3] = system: MET mRNA; design: species or system nude mice (MDA-MB-231 human breast cancer xenograft); conditions: in vivo
MDA-MB-231 cells = conditions: in vitro, cited from earlier work
MET = conditions: cited from earlier work
HGF mRNA [4] = assay: Real-time PCR of HGF mRNA in MDA-MB-231 cells; type: cell-based, human; conditions: in vitro
Description: (§1) In vitro, MDA-MB-231 cells were prepared as described above. […] Tumors were obtained from three mice per group at 0, 3, 6, 9, and 12 days. The total RNA was extracted using an RNA isolation kit (Takara, Shiga, Japan) according to the manufacturer’s instructions. cDNA was synthesized from 2 μg of RNA using a reverse transcriptase M-MLV synthesis kit (Takara). Real-time PCR was performed using the MyiQ5 real-time PCR detection system (Bio-Rad) with SYBR Premix Ex Taq (Takara). The PCR products for human β-actin, […], and HGF were synthesized with the primer pairs FP (forward primer) 5′-[…]-3′ and RP (reverse primer) 5′-[…]-3′ (β-actin, Gene ID: 60), FP 5′-[…]-3′ and RP 5′-[…]-3′ (MET, Gene ID: 4233), as well as FP 5′-[…]-3′ and RP 5′-[…]-3′ (HGF, Gene ID: 3082). All primers were purchased from AuGCT DNA-SYN Biotechnology Co., Ltd. (Dalian, China). Samples were run in triplicate under the following conditions: an initial denaturation for 30 s at 95 °C, followed by 45 cycles of 15 s at 95 °C, 30 s at 60 °C, and 33 s at 72 °C. The levels of gene expression in each sample were normalized to β-actin mRNA.

HGF mRNA [5] = assay: Real-time PCR of HGF mRNA in MDA-MB-231 xenograft tumors; type: in vivo, nude mice (MDA-MB-231 human breast cancer xenograft); design: dose or concentration left out as unconfirmed; conditions: tumors at 0, 3, 6, 9, 12 days
Description: as §1

[6] = system: MDA-MB-231 xenograft tumors; assay: Tumor growth inhibition assay, MDA-MB-231 tumor xenograft model; type: in vivo, BALB/c nude mice; conditions: for tumor inhibitory rate: day 18, n = 6; for mean tumor volume: day 18, vehicle group 285.00 ± 30.82 mm^3
Description: MDA-MB-231 cells (2 × 10^7) were suspended in 200 μL of PBS (pH 7.4) and were inoculated subcutaneously into the second mammary fat pads of the nude mice. The tumor diameter was measured with a vernier caliper and converted into tumor volume using the formula 1/2 × A × B^2 (A = larger diameter, B = smaller diameter). The treatment was started when the average tumor volume reached 50 mm^3.
Xenograft mice were randomly divided into three groups, with six in each group. […] The blank control group received only the vehicle solution. The tumor size and body weight were measured every three days. After 18 days of treatment, the animals were euthanized by cervical displacement. The tumors were collected after the final treatment and frozen at −80 °C until use.

p-MET [7] = conditions: cited from earlier work
HGF = assay: Immunohistochemical staining (IOD) of HGF in tumor tissue; type: in vivo, nude mice (MDA-MB-231 human breast cancer xenograft); conditions: 15 and 50 mg/kg for 18 days
Description: After the paraffin sections of tumors were deparaffinized, rehydrated, and washed with PBS (pH 7.4), antigen retrieval was performed by boiling the sections in 10 mmol/L sodium citrate buffer (pH 6.0) in the microwave for 4 min. The endogenous peroxidase activity was quenched by placing the slides in 3% hydrogen peroxide in methanol. The slides were then blocked with 3% BSA-PBS, followed by incubation with a 1:425 dilution of the primary antibody of p-MET and HGF (Cell Signaling Technology, Danvers, MA, USA) overnight at 4 °C. Thereafter, the detection was performed using a biotin-conjugated secondary antibody and a streptavidin-horseradish peroxidase conjugate (SA-HRP), followed by colorimetric detection using diaminobenzidine (DAB). The sections were counterstained with hematoxylin and stabilized with a mounting medium. The immunohistochemical images with integrated optical density (IOD) of positive expression, which reflected the distribution characteristics of anti-p-MET and anti-HGF positive stained area in tumor tissues, were quantitatively analyzed using Image-Pro Plus version 6.0 (Media Cybernetics, Inc., Silver Spring, MD, USA).

MET mRNA [8] = assay: Real-time PCR of MET mRNA in MDA-MB-231 cells; type: cell-based, human; conditions: in vitro
Description: as §1

In the case of `COc1cc2c(Oc3ccc(NC(=O)C4(C(=O)Nc5ccc(F)cc5)CC4)cc3F)ccnc2cc1OCCCN1CCOCC1` [Foretinib], the “p-MET expression in the tumor tissues (IHC staining, IOD)” value (p-MET [1]) is reported as “decreased in a dose-dependent manner”, the AUC(0-inf) ([2]; single oral dose 2 mg/kg) is reported as 407 ± 63.4 ng·h/mL and the AUC(0-t) ([2]; single oral dose 2 mg/kg) is reported as 366 ± 76.4 ng·h/mL. For the same compound, the Cmax ([2]; single oral dose 2 mg/kg) was 22.2 ± 11.2 ng/mL, the Tmax ([2]; single oral dose 2 mg/kg) was 4 h and the half-life ([2]; single oral dose 2 mg/kg) was 15.1 ± 2.49 h. For the same compound, the MRT ([2]; single oral dose 2 mg/kg) was 20.1 ± 5.05 h, the AUC(0-inf) ([2]; single oral dose 10 mg/kg) was 7260 ± 108 ng·h/mL and the AUC(0-t) ([2]; single oral dose 10 mg/kg) was 6210 ± 423 ng·h/mL. For the same compound, the Cmax ([2]; single oral dose 10 mg/kg) was 334 ± 107 ng/mL, the Tmax ([2]; single oral dose 10 mg/kg) was 2 h and the half-life ([2]; single oral dose 10 mg/kg) was 19.9 ± 6.72 h. For the same compound, the MRT ([2]; single oral dose 10 mg/kg) was 25.1 ± 8.36 h, the AUC(0-inf) ([2]; single oral dose 50 mg/kg) was 13000 ng·h/mL and the AUC(0-t) ([2]; single oral dose 50 mg/kg) was 12600 ng·h/mL. It also gave a Cmax ([2]; single oral dose 50 mg/kg) of 1430 ± 744 ng/mL, a Tmax ([2]; single oral dose 50 mg/kg) of 0.5 h and a half-life ([2]; single oral dose 50 mg/kg) of 9.48 ± 0.045 h. The MRT ([2]; single oral dose 50 mg/kg) was 13.3 ± 0.73 h, the “Vd (volume of distribution)” value ([2]; single oral dose 2 mg/kg) was 109.72 ± 34.73 L/kg and the “k (elimination constant)” value ([2]; single oral dose 2 mg/kg) was 0.046 ± 0.008 h⁻¹. The “Vd (volume of distribution)” value ([2]; single oral dose 10 mg/kg) was 39.76 ± 13.95 L/kg, the “k (elimination constant)” value ([2]; single oral dose 10 mg/kg) was 0.037 ± 0.012 h⁻¹ and the “Vd (volume of distribution)” value ([2]; single oral dose 50 mg/kg) was 60.90 ± 31.53 L/kg. The “k (elimination constant)” value ([2]; single oral dose 50 mg/kg) was 0.073 ± 0.0003 h⁻¹, the “mRNA expression level of MET” value (MET mRNA [3]) was “effectively suppressed” and the apoptosis (MDA-MB-231 cells; MDA-MB-231 cells) was “induce marked apoptosis”. For the same compound, the cell cycle arrest (MDA-MB-231 cells; MDA-MB-231 cells) was “arrest cancer cells mainly in the G2/M phase”, the “cell viability of MDA-MB-231” value (MDA-MB-231 cells) was “can decrease the cell viability” and the “expression of MET in MDA-MB-231” value (MET) was “remained unchanged”. The “mRNA expression level of HGF” value (HGF mRNA [4]) was “effectively suppressed”, the “mRNA expression level of HGF” value (HGF mRNA [5]) was “effectively suppressed” and the tumor inhibitory rate ([6]; 15 mg/kg/day intragastric) was 42.79 ± 8.52%. The tumor inhibitory rate ([6]; 50 mg/kg/day intragastric) was 79.16 ± 4.58%, the mean tumor volume ([6]; high dose group (50 mg/kg/day)) was 80.67 ± 17.00 mm^3 and the mean tumor volume ([6]; low dose group (15 mg/kg/day)) was 220.00 ± 70.14 mm^3. The “expression of p-MET in MDA-MB-231” value (p-MET [7]) was “remarkably inhibit”, the “HGF expression in the tumor tissues (IHC staining, IOD)” value (HGF) was “decreased in a dose-dependent manner” and the “mRNA expression level of MET” value (MET mRNA [8]) was “effectively suppressed”.

From PMC9821162 (International Journal of Molecular Sciences, 2023)
